Here are results for 18 compounds from PubChem BioAssay AID248 (DTP/NCI, 2004).

Several values for one entry are separate records, joined by “and”; a condition that tells them apart may be missing. Equal entries are not always repeated. Toxic doses and inconclusive results are not listed.

This assay deals with L1210 leukemia ip in BDF1 mice, survival T/C. Nature of the assay: NCI In Vivo Anticancer Drug Screen. Data for tumor model L1210 Leukemia (intraperitoneal) in B6D2F1 (BDF1) mice. Particulars: endpoint: mean survival time, higher = longer survival. In short, it runs like this:
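Transplantable tumor model; survival measured in treated vs vehicle control mice. Value = treated/control.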

Setting [1] is: dose: 100.0 mg/kg/injection, schedule: Q01DX009 (ip), vehicle: saline with Tween-80.
Setting [2] is: dose: 200.0 mg/kg/injection, schedule: Q01DX009 (ip), vehicle: saline with Tween-80.
Setting [3] is: dose: 400.0 mg/kg/injection, schedule: Q01DX009 (ip), vehicle: saline with Tween-80.
Where [4] appears, read: dose: 50.0 mg/kg/injection, schedule: Q01DX001 (ip), vehicle: carboxymethylcellulose (CMC).
[5] abbreviates: dose: 100.0 mg/kg/injection, schedule: Q01DX001 (ip), vehicle: carboxymethylcellulose (CMC).
Where [6] appears, read: dose: 200.0 mg/kg/injection, schedule: Q01DX001 (ip), vehicle: carboxymethylcellulose (CMC).
Where [7] appears, read: dose: 100.0 mg/kg/injection, schedule: Q01DX009 (ip), vehicle: Klucel (hydroxypropylcellulose) (HPC).
Setting [8] is: dose: 100.0 mg/kg/injection, schedule: Q04DX003 (ip), vehicle: Klucel (hydroxypropylcellulose) (HPC).
The mark [9] stands for this setting: dose: 200.0 mg/kg/injection, schedule: Q01DX009 (ip), vehicle: Klucel (hydroxypropylcellulose) (HPC).
Where [10] appears, read: dose: 200.0 mg/kg/injection, schedule: Q04DX003 (ip), vehicle: Klucel (hydroxypropylcellulose) (HPC).
[11] abbreviates: dose: 400.0 mg/kg/injection, schedule: Q01DX009 (ip), vehicle: Klucel (hydroxypropylcellulose) (HPC).
The mark [12] stands for this setting: dose: 400.0 mg/kg/injection, schedule: Q04DX003 (ip), vehicle: Klucel (hydroxypropylcellulose) (HPC).
Setting [13] is: dose: 6.25 mg/kg/injection, schedule: Q01DX009 (ip), vehicle: saline.
Setting [14] is: dose: 12.5 mg/kg/injection, schedule: Q01DX009 (ip), vehicle: saline.
Setting [15] is: dose: 25.0 mg/kg/injection, schedule: Q01DX009 (ip), vehicle: saline.
Setting [16] is: dose: 50.0 mg/kg/injection, schedule: Q01DX009 (ip), vehicle: saline.
The mark [17] stands for this setting: dose: 100.0 mg/kg/injection, schedule: Q04DX003 (ip), vehicle: saline.

`CC1CCOC(=O)CCCCC1=O` (stereo not drawn): the T/C reads like this: (dose: 100.0 mg/kg/injection, schedule: Q01DX001 (ip), vehicle: saline) 101 % of control; (dose: 200.0 mg/kg/injection, schedule: Q01DX001 (ip), vehicle: saline) 90 % of control; (dose: 400.0 mg/kg/injection, schedule: Q01DX001 (ip), vehicle: saline) 109 % of control.

Turning to `CCOC(=O)CC1COC(=O)C1C(=O)OCC` (stereo not drawn), the T/C is 105 % of control (dose: 12.5 mg/kg/injection, schedule: Q01DX009 (ip), vehicle: saline with Tween-80); 105 % of control and 120 % of control (dose: 25.0 mg/kg/injection, schedule: Q01DX009 (ip), vehicle: saline with Tween-80); 95 % of control (dose: 50.0 mg/kg/injection, schedule: Q01DX009 (ip), vehicle: saline with Tween-80); 98 % of control and 122 % of control under setting [1]; 118 % of control under setting [2]; 106 % of control under setting [3].

As for `COC1=C2C=[N+](C)C3C(=C2C=CC1OC)Cc1cc2c(cc13)OCO2` (stereo not drawn), the T/C is 104 % of control under setting [4], 107 % of control under setting [5] and 102 % of control under setting [6].

`Nc1nc(Nc2cccc(Cl)c2)cc(=O)[nH]1`: the T/C is, setting by setting: (dose: 100.0 mg/kg/injection, schedule: Q01DX Z (ip), vehicle: methylcellulose (MC)) 90 % of control; (dose: 200.0 mg/kg/injection, schedule: Q01DX Z (ip), vehicle: methylcellulose (MC)) 99 % of control.

Consider `O=NN(CCCl)C(=O)CCCCC(=O)N(CCCl)N=O`, for which the T/C runs as follows: (dose: 25.0 mg/kg/injection, schedule: Q01DX001 (ip), vehicle: carboxymethylcellulose (CMC)) 154 % of control; under setting [4], 160 % of control; (dose: 100.0 mg/kg/injection, schedule: Q01DX001 (ip), vehicle: Klucel (hydroxypropylcellulose) (HPC)) 75 % of control; under setting [5], 165 % of control; (dose: 200.0 mg/kg/injection, schedule: Q01DX001 (ip), vehicle: Klucel (hydroxypropylcellulose) (HPC)) 67 % of control; under setting [6], 122 % of control.

For the compound `CC(C)c1ccc(NC(=S)NCCO)cc1`, the T/C is 105 % of control (dose: 100.0 mg/kg/injection, schedule: Q04DX002 (ip), vehicle: Klucel (hydroxypropylcellulose) (HPC)); 105 % of control (dose: 200.0 mg/kg/injection, schedule: Q04DX002 (ip), vehicle: Klucel (hydroxypropylcellulose) (HPC)); 105 % of control (dose: 400.0 mg/kg/injection, schedule: Q04DX002 (ip), vehicle: Klucel (hydroxypropylcellulose) (HPC)).

Take `COc1ccc(OC(=O)Nc2ccc(Cl)c(Cl)c2)cc1`: the T/C was 102 % of control under setting [7]; 95 % of control under setting [8]; 106 % of control under setting [9]; 95 % of control under setting [10]; 95 % of control under setting [11]; 102 % of control under setting [12].

With `CC(C)(SCc1ccccc1)C(NC(=O)OCc1ccccc1)C(=O)O` (stereo not drawn), the T/C is, setting by setting: (dose: 12.5 mg/kg/injection, schedule: Q01DX009 (ip), vehicle: DMSO) 92 % of control; (dose: 25.0 mg/kg/injection, schedule: Q01DX009 (ip), vehicle: DMSO) 92 % of control; (dose: 50.0 mg/kg/injection, schedule: Q01DX009 (ip), vehicle: DMSO) 88 % of control; (dose: 100.0 mg/kg/injection, schedule: Q04DX002 (ip), vehicle: DMSO) 95 % of control; (dose: 200.0 mg/kg/injection, schedule: Q04DX002 (ip), vehicle: DMSO) 97 % of control.

With `CCCCCCCCCCCCCCCCc1c(C)ncn(C)c1=O`, the T/C under setting [8] is 98 % of control, the T/C under setting [10] is 101 % of control and the T/C under setting [12] was 95 % of control.

For the compound `COc1cc(OC)c(N=Cc2ccc3c(c2)OCO3)cc1Cl`, the T/C is, setting by setting: under setting [7], 91 % of control; under setting [9], 98 % of control; under setting [11], 96 % of control.

Consider `Cc1cc(N=Nc2ccc([N+](=O)[O-])cc2)ccc1N(C)C`, for which the T/C (dose: 100.0 mg/kg/injection, schedule: Q01DX001 (ip), vehicle: other) was 97 % of control; the T/C (dose: 200.0 mg/kg/injection, schedule: Q01DX001 (ip), vehicle: other) was 101 % of control; the T/C (dose: 400.0 mg/kg/injection, schedule: Q01DX001 (ip), vehicle: other) was 89 % of control.

On to `CC(CC1c2ccccc2CCc2ccccc21)CN(C)C` (stereo not drawn), for which the T/C reads like this: under setting [13], 95 % of control; under setting [14], 104 % of control; under setting [15], 95 % of control; (dose: 25.0 mg/kg/injection, schedule: Q04DX003 (ip), vehicle: saline) 102 % of control; under setting [16], 101 % of control; (dose: 50.0 mg/kg/injection, schedule: Q04DX003 (ip), vehicle: saline) 107 % of control. Moreover, the T/C under setting [17] is 120 % of control.

Regarding `NCCOc1ccc([N+](=O)[O-])cc1Cl`, the T/C is 93 % of control under setting [16]; 96 % of control (dose: 75.0 mg/kg/injection, schedule: Q01DX001 (ip), vehicle: other); 98 % of control (dose: 100.0 mg/kg/injection, schedule: Q01DX009 (ip), vehicle: saline); 121 % of control under setting [17]; 100 % of control (dose: 150.0 mg/kg/injection, schedule: Q01DX001 (ip), vehicle: other); 96 % of control (dose: 200.0 mg/kg/injection, schedule: Q01DX009 (ip), vehicle: saline). The T/C is, setting by setting: (dose: 200.0 mg/kg/injection, schedule: Q04DX003 (ip), vehicle: saline) 103 % of control; (dose: 300.0 mg/kg/injection, schedule: Q01DX001 (ip), vehicle: other) 96 % of control.

On to `COc1cc(/C=C2\CN(C)C(=O)C2=O)ccc1O`, for which the T/C is, setting by setting: under setting [1], 101 % of control; (dose: 100.0 mg/kg/injection, schedule: Q04DX003 (ip), vehicle: saline with Tween-80) 105 % of control; under setting [2], 100 % of control; (dose: 200.0 mg/kg/injection, schedule: Q04DX003 (ip), vehicle: saline with Tween-80) 98 % of control; under setting [3], 101 % of control; (dose: 400.0 mg/kg/injection, schedule: Q04DX003 (ip), vehicle: saline with Tween-80) 96 % of control.

Consider `CC1C=C(Br)C(=O)c2ccccc2N1S(C)(=O)=O` (stereo not drawn), for which the T/C runs as follows: (dose: 6.0 mg/kg/injection, schedule: Q04DX003 (ip), vehicle: Klucel (hydroxypropylcellulose) (HPC)) 98 % of control; (dose: 12.0 mg/kg/injection, schedule: Q04DX003 (ip), vehicle: Klucel (hydroxypropylcellulose) (HPC)) 92 % of control; (dose: 12.5 mg/kg/injection, schedule: Q01DX009 (ip), vehicle: Klucel (hydroxypropylcellulose) (HPC)) 102 % of control; (dose: 25.0 mg/kg/injection, schedule: Q01DX009 (ip), vehicle: Klucel (hydroxypropylcellulose) (HPC)) 94 % of control; (dose: 25.0 mg/kg/injection, schedule: Q04DX003 (ip), vehicle: Klucel (hydroxypropylcellulose) (HPC)) 93 % of control and 96 % of control.

In the case of `O=c1oc2c(CN3CCCCC3)c(O)ccc2c2c1CCCC2`, the T/C by setting is: under setting [5], 93 % of control; under setting [6], 96 % of control; (dose: 400.0 mg/kg/injection, schedule: Q01DX001 (ip), vehicle: carboxymethylcellulose (CMC)) 93 % of control.

As to `Nc1cccc2ncc(C=O)n12`, the T/C by setting is: (dose: 37.5 mg/kg/injection, schedule: Q01DX001 (ip), vehicle: Klucel (hydroxypropylcellulose) (HPC)) 102 % of control; (dose: 75.0 mg/kg/injection, schedule: Q01DX001 (ip), vehicle: Klucel (hydroxypropylcellulose) (HPC)) 96 % of control; (dose: 150.0 mg/kg/injection, schedule: Q01DX001 (ip), vehicle: Klucel (hydroxypropylcellulose) (HPC)) 95 % of control.

Turning to `CC(=O)OC(CC(=O)CC(O)(C(F)(F)F)C(F)(F)F)(C(F)(F)F)C(F)(F)F`, the T/C under setting [13] is 94 % of control, the T/C under setting [14] was 91 % of control and the T/C under setting [15] is 88 % of control.
